According to patent US9138470B2, “Multi-component L2 vaccine for prevention of human papilloma virus infection” (The Johns Hopkins University, priority 2007, dated 2015):
Entries after “also recorded” stand apart in the source; their conditions may differ.

Tests used:
Format in all cases: in vivo
HPV16 pseudovirions = experiment: Cutaneous HPV challenge with HPV16 pseudovirions (luciferase reporter); settings: BALB/c mice vaccinated s.c. three times, bioluminescence 3 days post-challenge
Experimental: (§1) Immunization of mice. All animal experimental work was done in accordance with Johns Hopkins Medical Institutions Animal Care and Use Committee guidelines. BALB/c and C57BL/6 (NCI, Frederick, Md.) wild type or MyD88 (D. Golenbock, UMass Medical Center, […], Mass.), CD40, or MHCII deficient mice (Jackson Laboratories, Bar Harbor, Me.) were used. Mice aged 4-6 wks were immunized with P25-P2C-HPV vaccine or various controls. All vaccine and control peptides were dissolved in phosphate-buffered saline (PBS). Mice received two booster immunizations at 4 wks and 8 wks after priming immunization in the same fashion and dose. (i) subcutaneous (s.c.): Each mouse was administered 20 nmols of vaccine in a total volume of 100 μL or an equivalent amount of several control preparations at the base of the tail. (ii) intranasal (i.n.): Anesthesia induction was accomplished within 3 to 5 mins using a chamber filled with 2.5% isoflurane (Baxter, Deerfield, Ill.). While anesthetized, each mouse was administered 20 nmols of lipopeptide in a total volume of 50 μL of vaccine or an equivalent amount of several control preparations via controlled micropipetting into the nares.
(§2) Cutaneous HPV challenge. […] Equal areas encompassing the site of virus inoculation were analyzed using Living Image 2.20 software (Xenogen), and background was determined by challenge with non-infectious HPV pseudovirions lacking L2.

HPV45 pseudovirions = experiment: Cutaneous HPV challenge with HPV45 pseudovirions (luciferase reporter); settings: BALB/c mice vaccinated s.c. three times, luminescence 72 hrs post-challenge
Experimental: as §1, §2

HPV16 L2 17-36 = HPV16 L2 17-36 peptide ELISA of sera from immunized mice; settings: mice vaccinated s.c. or i.n.; compared with saline controls
Experimental: as §1
Collection and quantification of HPV specific antibody responses. […] Presence of serum antibodies against HPV16 was assessed by enzyme-linked immunosorbent assays (ELISA). […]

HPV16 L1 VLP: virus-like particles of HPV16 major capsid protein L1, control vaccine
protection from cutaneous challenge with HPV16 pseudovirions (HPV16 pseudovirions): protected mice from cutaneous challenge | protection from cutaneous challenge with HPV45 pseudovirions (HPV45 pseudovirions): did not protect

QLYKTCKQAGTCPPDIIPKV (listed as Human papillomavirus) [HPV16 L2 17-36 peptide]
protection from cutaneous challenge with HPV16 pseudovirions (HPV16 pseudovirions): failed to protect the mice | protection from cutaneous challenge with HPV45 pseudovirions (HPV45 pseudovirions): did not protect | L2-specific antibody (immune) response by ELISA (HPV16 L2 17-36): immune responses similar to saline controls; also recorded: failed to induce an L2-specific antibody response
